Experimental data as given in patent US20260285816A1, “Piperazinyl-Modified Quinazolinyl-Aryl Urea Derivative, And Preparation Method And Use Thereof” (Guangxi Normal University, priority 2025, published 2026).
“Also recorded” adds a separate entry of the source. Like-named read-outs stand apart in the source and are kept apart here. Each block holds one molecule with its values, some of them ahead of it.

Key:
[1] = test system: T24 cells; test: CCK-8 anti-proliferative assay, T24; format: cell-based, human; conditions: Homo sapiens, T-24, co-incubated 48 h, read-out: Anti-proliferative activity (IC50 ± standard deviation) T24
Method in brief: (§1)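 Human tumour cells were seeded at 5,000 per well and grown to 70% confluence. They were then treated in triplicate with compound at 1–30 μM (final) for the designated time. Viability was read by CCK-8 absorbance at 450 nm after 1–4 h, and IC50 was derived from % inhibition versus control.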

[2] = test system: J82 cells; test: CCK-8 anti-proliferative assay, J82; format: cell-based, human; conditions: Homo sapiens, J82
Method in brief: (§2)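 Cells seeded at 5,000/well, grown at 37° C, 5% CO2 to 70% confluence, then treated in triplicate with 1-30 μM compound (nine concentrations) for designated times.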

[3] = test system: Hep G2 cells; test: CCK-8 anti-proliferative assay, Hep G2; format: cell-based, human; conditions: Homo sapiens, HepG2, co-incubated 48 h, read-out: Anti-proliferative activity (IC50 ± standard deviation) Hep G2
Method in brief: as §1

[4] = test system: HeLa cells; test: CCK-8 anti-proliferative assay, HeLa; format: cell-based, human; conditions: for IC50: Homo sapiens, HeLa, co-incubated 48 h, read-out: Anti-proliferative activity (IC50 ± standard deviation) HeLa
Method in brief: as §2

[5] = test system: embryonic lung fibroblasts (WI-38); test: CCK-8 anti-proliferative assay, normal cells WI-38; format: cell-based, human; conditions: Homo sapiens, read-out: Anti-proliferative activity (IC50 ± standard deviation) WI-38
Method in brief: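 Compound was added at final concentrations of 1 to 30 μM, in triplicate, to cells at 70% confluence (5,000 per well seeded). After co-incubation, CCK-8 was added for 1–4 h depending on the cell line. Inhibition from OD450 relative to untreated cells gave IC50.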

[6] = test system: BxPC-3 cells; test: CCK-8 anti-proliferative assay, BxPC-3; format: cell-based, human; conditions: for IC50: Homo sapiens, BXPC-3, co-incubated 48 h, read-out: Anti-proliferative activity (IC50 ± standard deviation) BxPC-3
Method in brief: as §1

[7] = test system: immortalized ureteral epithelial cells (SV-HUC-1); test: CCK-8 anti-proliferative assay, normal cells SV-HUC-1; format: cell-based, human; conditions: Homo sapiens, SV-HUC1, normal cells, co-incubated 48 h, read-out: Anti-proliferative activity (IC50 ± standard deviation) SV-HUC-1
Method in brief: as §2

[8] = test system: UM-UC-3 cells; test: CCK-8 anti-proliferative assay, UM-UC-3; format: cell-based, human; conditions: Homo sapiens, UMUC3, co-incubated 48 h, read-out: Anti-proliferative activity (IC50 ± standard deviation) UM-UC-3
Method in brief: as §2

[9] = test system: SK-OV-3 cells; test: CCK-8 anti-proliferative assay, SK-OV-3; format: cell-based, human; conditions: Homo sapiens, SK-OV-3, co-incubated 48 h, read-out: Anti-proliferative activity (IC50 ± standard deviation) SK-OV-3
Method in brief: as §2

[10] = test system: PANC-1 cells; test: CCK-8 anti-proliferative assay, PANC-1; format: cell-based, human; conditions: for IC50: Homo sapiens, PANC-1, co-incubated 48 h, read-out: Anti-proliferative activity (IC50 ± standard deviation) PANC-1
Method in brief: as §1

[11] = test system: 143B cells; test: CCK-8 anti-proliferative assay, 143B; format: cell-based, human; conditions: Homo sapiens, 143B
Method in brief: as §1

[12] = test system: 5637 cells; test: CCK-8 anti-proliferative assay, 5637; format: cell-based, human; conditions: Homo sapiens
Method in brief: as §2

[13] = format: physicochemical
Protocol: 0.9% normal saline was added thereto to obtain a solution, which was sterilized under UV light for 30 min. Administration volume was 10 mL/kg per mouse. […]
A resulting mixture was sterilized under UV light for 30 min. Administration volume was 10 mL/kg per mouse.

[14] = test system: MG-63 cells; test: CCK-8 anti-proliferative assay, MG-63; format: cell-based, human; conditions: Homo sapiens, MG-63
Method in brief: as §1

[15] = test system: MCF-7 cells; test: CCK-8 anti-proliferative assay, MCF-7; format: cell-based, human; conditions: for IC50: Homo sapiens, MCF7, co-incubated 48 h, read-out: Anti-proliferative activity (IC50 ± standard deviation) MCF-7
Method in brief: as §2

[16] = test system: A549 cells; test: CCK-8 anti-proliferative assay, A549; format: cell-based, human; conditions: for IC50: Homo sapiens, A549, co-incubated 48 h, read-out: Anti-proliferative activity (IC50 ± standard deviation) A549
Method in brief: as §2

[17] = read-out: IC50 values, osteosarcoma cells 143B
[18] = read-out: IC50 values, osteosarcoma cells MG-63

IC50 ([1]; Table 6): 4.57 ± 0.42 µM
IC50 ([4]; Table 8): 4.33 ± 0.45 µM
IC50 ([6]; Table 7): 6.53 ± 0.48 µM
IC50 ([9]; Table 9): 5.04 ± 0.32 µM
IC50 ([10]; Table 7): 7.72 ± 0.66 µM
Solubility in co-solvents (PEG400+normal saline, PEG400+PBS, PEG400+5% dextrose injection) [13]: superior solubility
Solubility in the PEG400-0.9% normal saline mixture ([13]; PEG400:0.9% normal saline 3:1): desirable solubility
IC50 ([15]; Table 8): 3.25 ± 0.35 µM
IC50 ([16]; Table 8): 4.39 ± 0.34 µM
SMILES: COc1cc2ncnc(NCc3cccc(NC(=O)Nc4ccc(C(C)(C)C)cc4)c3)c2cc1OCCCCCCN1CCN(CCN2CCOCC2)CC1 [Compound 8-1j, N-(3-(((7-methoxy-6-((6-(4-(2-morpholinoethyl)piperazin-1-yl)hexyl)oxy)quinazolin-4-yl)amino)methyl)phenyl)-N′-(4-tert-butylphenyl)urea]
IC50 ([2]; Table 6, co-incubated 48 h, read-out: Anti-proliferative activity (IC50 ± standard deviation) J82): 2.98 ± 0.27 µM
IC50 ([2]; read-out: IC50 values against J82 cells): 2.98 ± 0.27 µM
IC50 ([3]; Table 8): 3.83 ± 0.36 µM
IC50 ([5]; WI-38, Table 9, co-incubated 48 h): 10.3 ± 0.36 µM
Sensitivity of BxPC-3 / anti-proliferative activity against BxPC-3, in words [6]: sensitive; also recorded: less sensitive
IC50 ([7]; Table 9): 8.03 ± 0.41 µM
IC50 ([8]; Table 6): 3.53 ± 0.39 µM
IC50 ([11]; Table 7, co-incubated 48 h, read-out: Anti-proliferative activity (IC50 ± standard deviation) 143B): 3.43 ± 0.25 µM
IC50 [11, 17]: < 5 µM
IC50 ([12]; Table 6, co-incubated 48 h, read-out: Anti-proliferative activity (IC50 ± standard deviation) 5637): 3.29 ± 0.27 µM
IC50 ([12]; read-out: IC50 values against 5637 cells): 3.29 ± 0.27 µM
IC50 ([14]; Table 7, co-incubated 48 h, read-out: Anti-proliferative activity (IC50 ± standard deviation) MG-63): 4.17 ± 0.38 µM
IC50 [14, 18]: < 5 µM
Sensitivity of MCF-7, in words [15]: sensitive

SMILES: CCc1cccc(CC)c1NC(=O)Nc1cccc(CNc2ncnc3cc(OC)c(OCCCCCCN4CCC(CN5CCN(c6ccccn6)CC5)CC4)cc23)c1 [Compound 8-2h, N-(3-(((7-methoxy-6-((6-(4-((4-(pyridin-2-yl)piperazin-1-yl)methyl)piperidin-1-yl)hexyl)oxy)quinazolin-4-yl)amino)methyl)phenyl)-N′-(2,6-diethylphenyl)urea]
IC50 ([1]; Table 10): 4.21 ± 0.36 µM
IC50 ([2]; Table 10, co-incubated 48 h, read-out: Anti-proliferative activity (IC50 ± standard deviation) J82): 4.42 ± 0.29 µM
IC50 ([3]; Table 12): 4.66 ± 0.38 µM
Sensitivity of HeLa, in words [4]: sensitive
IC50 ([4]; Table 12): 3.29 ± 0.18 µM
IC50 ([5]; WI-38, Table 13, co-incubated 48 h): 9.58 ± 0.43 µM
Sensitivity of BxPC-3 / anti-proliferative activity against BxPC-3, in words [6]: significantly stronger anti-proliferative activity against BxPC-3 than positive control Sora; also recorded: heightened sensitivity; also recorded: very sensitive; also recorded: highly sensitive
IC50 ([6]; Table 11): 3.66 ± 0.24 µM
IC50 ([7]; Table 13): 9.53 ± 0.83 µM
IC50 ([8]; Table 10): 5.09 ± 0.35 µM
IC50 ([9]; Table 12): 6.12 ± 0.55 µM
Sensitivity of PANC-1, in words [10]: sensitive; also recorded: heightened sensitivity
IC50 ([10]; Table 11): 4.88 ± 0.29 µM
IC50 ([11]; Table 11, co-incubated 48 h, read-out: Anti-proliferative activity (IC50 ± standard deviation) 143B): 4.91 ± 0.36 µM
IC50 [11, 17]: < 5 µM
IC50 ([12]; Table 10, co-incubated 48 h, read-out: Anti-proliferative activity (IC50 ± standard deviation) 5637): 4.18 ± 0.22 µM
Solubility in co-solvents (PEG400+normal saline, PEG400+PBS, PEG400+5% dextrose injection) [13]: superior solubility
IC50 ([14]; Table 11, co-incubated 48 h, read-out: Anti-proliferative activity (IC50 ± standard deviation) MG-63): 3.97 ± 0.26 µM
IC50 [14, 18]: < 5 µM
IC50 ([15]; Table 12): 5.38 ± 0.35 µM
Activity against A549 versus the 8-1 to 8-23 series, in words [16]: significantly enhanced activity against A549
IC50 ([16]; Table 13): 3.41 ± 0.26 µM
